The results in this text go back to US20040009899A1, “Treating dominant disorders” (priority 2002, published 2004).

One data set has as its system mice. Briefly: Toxicity observation (behavior, weight, motor function) during intraventricular PNA treatment. The conditions noted are these: 1.0 μL (25 μg/μL) into the ventricle every other day. The data set is classed as in vivo. Here is the method:
Animal treatment and tissue preparation: Aliquots of 1.0 μL (25 μg/μL) of a PNA oligomer specific for the expanded human HD allele (HDs) or a scrambled control PNA (HDscr) were administered into the ventricle every other day by injection via the cannula.

In another data set the test system is GAPDH. Nature of the data set: Western immunoblot of GAPDH (non-targeted gene) in PNA-treated R6/1 mice. The data set is classed as in vivo, mouse. The conditions noted are these: any animal tested. On the procedure: Following the treatment period, mice were anesthetized with ether and sacrificed by cervical dislocation. Whole brains and livers were removed and placed in 0.9% saline. Striatum tissue was dissected from whole brains, and liver tissue was finely minced. The tissues were placed in separate 2 mL microfuge tubes on dry ice and then suspended in 20 volumes of RIPA buffer (50 mM Tris pH 8, 150 mM NaCl, 1 mM EDTA, 1 mM EGTA, 0.5% sodium deoxycholate, 0.1% SDS, 1% TritonX-100, 2 μg/mL leupeptin, 2 μg/mL aprotinin, 1 μg/mL pepstatin, 1 mM phenylmethylsulfonylfluoride) per gram of tissue. Suspended tissues were homogenized by sonication, and the homogenates were clarified by centrifugation at 12,000×g for 20 minutes at 4° C. Following centrifugation, the supernatants were removed and protein concentrations were quantified by Bradford assays using a BSA standard.
Immunoblotting: Supernatants from the tissue homogenates were mixed with 1/6 volume of 6×SDS sample buffer (350 mM Tris pH 6.8, 10% SDS, 30% glycerol, 15% 2-mercaptoethanol, 0.012% bromophenol blue). Equal amounts of protein were directly loaded onto 10% acrylamide/0.05% bisacrylamide gels without heat denaturation. […] Protein bands were detected on film by chemiluminescence. […]
(A western blot detects proteins with antibodies after separation by electrophoresis.)

For data set [1], the system named is endogenous mouse Hdh allele. Briefly: Western immunoblot of endogenous mouse htt expression in PNA-treated R6/1 mice. The format is in vivo. The conditions noted are these: any tissue examined (striatum, liver), any tested time point (4 or 6 days). On the procedure:
Cannulation and microsurgery—method 1: B6CBA, R6/1, and R6/2 mice were obtained from The Jackson Laboratory (Bar Harbor, Me.). Mice were anesthetized via intraperitoneal (i.p.) injection with 100 mg/kg of a ketamine/xylazine solution containing 8 mg/mL ketamine and 1 mg/mL xylazine in 0.9% saline. Once anesthetized, each mouse was cannulated. Each anesthetized mouse was placed in a Stoelting Stereotaxic Frame with a mouse adapter (Stoelting Instruments, Wood Dale, Ill.). An incision was made using a scalpel, and the skin and tissue were pulled back with swabs to reveal the skull. The cannulation site was positioned for optimum access to the ventricle, at coordinates AP −0.2 mm, Horiz −1 mm from bregma. A cannula entry port and two bone screw ports were opened in the skull using a Dremel Flex Shaft Drill (Stoelting Instruments) with a 2.1 mm burr for the guide cannula port and a 0.7 mm burr for the bone screws (Fine Science Tools, Foster City, Calif.). Two 4.0 mm long bone screws (0.85 diameter) were placed far enough into the bone screw ports to fasten securely. […]
Following the treatment period, mice were anesthetized with ether and sacrificed by cervical dislocation. […] Following centrifugation, the supernatants were removed and protein concentrations were quantified by Bradford assays using a BSA standard. […]

Consider “HDscr: scrambled control PNA oligomer, 5′-GCAGCGGCGGTCCT-3′ (SEQ ID NO:4) (all peptide nucleic acid (PNA)) [reference compound]”, for which, in the data set on mice, the “toxicity as measured by weight or motor function relative to untreated animals” value is given as “no effects of toxicity”. Moreover, the “inhibition of non-targeted genes such as GAPDH” value with GAPDH is “No measurable inhibition”. In addition, the “effect on expression of the endogenous mouse Hdh allele” value in data set [1] is listed as “Neither HDs nor HDscr had any effect”.
